Test results as given in ChEMBL document CHEMBL1129832, “Rational design, synthesis, and serine protease inhibitory activity of a novel P1-argininal derivative featuring a conformationally constrained P2P3 bicyclic lactam moiety” (Bioorg Med Chem Lett, 1997).

How the values were obtained:
[1] = target: Tissue-type plasminogen activator (Homo sapiens, UniProt P00750); test: In vitro inhibitory concentration required to inhibit tissue plasminogen activator cleavage of the chromogenic substrate by 50%; Inactive
Sequence of Tissue-type plasminogen activator (P00750 whole entry): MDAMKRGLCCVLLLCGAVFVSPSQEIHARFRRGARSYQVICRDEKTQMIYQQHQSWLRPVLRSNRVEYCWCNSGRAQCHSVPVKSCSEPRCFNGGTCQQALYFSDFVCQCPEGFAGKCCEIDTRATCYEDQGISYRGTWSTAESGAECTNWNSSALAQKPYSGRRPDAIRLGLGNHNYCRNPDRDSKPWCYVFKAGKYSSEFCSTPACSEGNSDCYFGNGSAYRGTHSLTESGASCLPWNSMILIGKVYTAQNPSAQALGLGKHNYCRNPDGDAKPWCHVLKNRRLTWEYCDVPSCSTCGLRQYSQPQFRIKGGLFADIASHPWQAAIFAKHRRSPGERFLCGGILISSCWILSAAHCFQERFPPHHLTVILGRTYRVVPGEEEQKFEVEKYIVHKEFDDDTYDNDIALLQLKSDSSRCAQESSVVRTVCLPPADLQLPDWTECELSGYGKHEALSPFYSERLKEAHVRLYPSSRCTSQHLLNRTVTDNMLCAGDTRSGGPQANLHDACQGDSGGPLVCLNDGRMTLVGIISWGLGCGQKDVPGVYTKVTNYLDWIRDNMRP

Prothrombin = Prothrombin (Homo sapiens, UniProt P00734)
Serine protease 1 = Serine protease 1 (Homo sapiens, UniProt P07477)
Sequence of Serine protease 1 (P07477 whole entry): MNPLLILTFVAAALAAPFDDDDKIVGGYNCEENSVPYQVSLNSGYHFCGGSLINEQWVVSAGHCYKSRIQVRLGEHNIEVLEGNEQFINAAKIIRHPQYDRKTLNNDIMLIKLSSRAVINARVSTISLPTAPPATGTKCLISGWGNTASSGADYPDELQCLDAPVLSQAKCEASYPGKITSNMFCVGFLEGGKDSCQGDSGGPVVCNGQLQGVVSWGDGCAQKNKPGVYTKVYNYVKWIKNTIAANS

Plasminogen [2] = target: T1, Plasminogen (Homo sapiens, UniProt P00747)
T1 sequence (P00747 97-580 limits assumed): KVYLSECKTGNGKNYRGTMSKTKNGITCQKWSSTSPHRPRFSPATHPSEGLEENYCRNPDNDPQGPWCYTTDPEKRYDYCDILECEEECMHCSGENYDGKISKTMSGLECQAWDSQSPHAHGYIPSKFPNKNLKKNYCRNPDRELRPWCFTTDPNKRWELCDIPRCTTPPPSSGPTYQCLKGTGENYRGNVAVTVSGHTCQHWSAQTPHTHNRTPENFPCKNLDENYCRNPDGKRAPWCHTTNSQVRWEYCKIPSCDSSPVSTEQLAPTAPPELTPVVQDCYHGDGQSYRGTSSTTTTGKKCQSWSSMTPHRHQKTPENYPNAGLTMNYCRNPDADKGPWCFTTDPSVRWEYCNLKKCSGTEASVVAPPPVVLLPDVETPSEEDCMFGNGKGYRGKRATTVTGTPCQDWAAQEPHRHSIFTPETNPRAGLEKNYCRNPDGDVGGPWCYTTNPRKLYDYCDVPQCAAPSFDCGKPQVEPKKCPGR
T1 sequence (P00747 581-810 limits assumed): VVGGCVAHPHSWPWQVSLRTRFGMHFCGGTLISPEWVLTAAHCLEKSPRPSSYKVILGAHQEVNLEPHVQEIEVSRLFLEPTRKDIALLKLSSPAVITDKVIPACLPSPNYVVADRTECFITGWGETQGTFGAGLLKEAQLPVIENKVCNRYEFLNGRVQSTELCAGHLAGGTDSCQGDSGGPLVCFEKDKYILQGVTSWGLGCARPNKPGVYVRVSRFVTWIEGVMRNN

Coagulation factor X = Coagulation factor X (Homo sapiens, UniProt P00742)
Sequence of Coagulation factor X (P00742 41-179 limits assumed): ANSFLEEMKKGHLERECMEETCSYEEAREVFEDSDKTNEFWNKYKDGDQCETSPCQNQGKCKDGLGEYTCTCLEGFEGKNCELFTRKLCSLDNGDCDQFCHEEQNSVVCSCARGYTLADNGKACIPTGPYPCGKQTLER
Sequence of Coagulation factor X (P00742 235-488 limits assumed): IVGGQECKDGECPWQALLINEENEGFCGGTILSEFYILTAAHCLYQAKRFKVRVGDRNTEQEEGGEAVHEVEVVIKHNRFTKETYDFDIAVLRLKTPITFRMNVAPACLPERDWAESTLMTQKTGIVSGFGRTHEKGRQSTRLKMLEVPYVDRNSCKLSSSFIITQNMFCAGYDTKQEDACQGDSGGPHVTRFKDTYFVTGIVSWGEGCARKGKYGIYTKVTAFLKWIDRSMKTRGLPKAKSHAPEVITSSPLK
Description: In vitro inhibitory concentration required to inhibit Coagulation factor X by 50%

Plasminogen [3] = target: T1, Plasminogen; remark: listed apart in the source

Compound	IC50 [1]	IC50 (Prothrombin)	IC50 (Serine protease 1)	IC50 (Plasminogen [2])	IC50 (Coagulation factor X)	IC50 (Plasminogen [3])
CCCC(CCC)C(=O)N[C@@H](CC(=O)OC)C(=O)N1CCCC1C(=O)N[C@H]1CCCN(C(=N)N)C1O (stereo partly specified)	Not Active	1.1 nM	1.36 nM	315 nM	–	–
N=C(N)N1CCC[C@H](NC(=O)C2CS[C@H]3CC[C@H](NS(=O)(=O)Cc4ccccc4)C(=O)N23)C1O (stereo partly specified)	Not Active	16.4 nM	11.6 nM	923 nM	> 2500 nM	–
COC(=O)C[C@H](NS(=O)(=O)Cc1ccccc1)C(=O)N1CCCC1C(=O)N[C@H]1CCCN(C(=N)N)C1O (stereo partly specified)	–	5.01 nM	2.58 nM	14.8 nM	29.7 nM	–
N=C(N)N1CCC[C@H](NC(=O)CN2CCC[C@H](NS(=O)(=O)Cc3ccccc3)C2=O)C1O (stereo partly specified)	Not Active	–	–	–	> 2500 nM	Not Active
